The source of these data is ChEMBL document CHEMBL1201862, “PubChem BioAssay data set” (2004).

Each structure is given as a SMILES string.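 Where inhibition never reached the appropriate level, the endpoint shown equals the highest concentration tested. Otherwise, values were interpolated linearly from a five-concentration, 48-hour dose response in 96-well plates. GI50 marks 50% less growth.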 Calls of active or inactive are those of the source. Rule as the data show it: active = GI50 up to about 1.1 µM and inactive = higher. Some results are limits rather than exact numbers.

Common to all, as to experiment: DTP human tumour cell line panel, 48 h
Assay [1] concerns CCRF-CEM.
Assay [2] has as its system HCT-116.
The subject of assay [3] is HOP-92.
Assay [4] concerns HT-29.
Assay [5] deals with LOX IMVI.
The subject of assay [6] is MOLT-4.
In assay [7] the test system is NCI-H226.
In assay [8] the test system is NCI-H23.
The test system of assay [9] is NCI-H460.
Assay [10] relates to OVCAR-3.
The test system of assay [11] is SK-MEL-2.
For assay [12], the system named is SN12C.
Assay [13] deals with SNB-19.
The subject of assay [14] is SR.
For assay [15], the system named is TK-10.
In assay [16] the test system is UACC-257.
The test system of assay [17] is XF498.
In assay [18] the test system is MCF7.
Assay [19] deals with MDA-MB-231.
The test system of assay [20] is MDA-N.

Regarding `CC(=O)NC1=C(C)C(=O)c2c(nc3n2CCC3O)C1=N` (stereo unspecified), the GI50 (usually the concentration that inhibits growth by half) is 2.93 µM (inactive) in [1]; 2.39 µM (inactive) in assay [2]; 4.36 µM (inactive) in assay [3]; 17.6 µM (inactive) in assay [4]; 5.85 µM (inactive) in [5]; 1.95 µM (inactive) in [6]. Further, the GI50 in assay [7] is 17.4 µM (inactive); in assay [8], 14.8 µM (inactive); in assay [9] it was 22 µM (inactive); in assay [10], 2.98 µM (inactive); in [11] it was 9.68 µM (inactive); in [12], 6.19 µM (inactive). Besides, the GI50 in [13] was 25.1 µM (inactive); in assay [14] it was > 100 µM (inactive); in [15], 29.9 µM (inactive); in assay [16] it was 3.9 µM (inactive); in assay [17], 3.81 µM (inactive).
For `Cc1nc(C(N)=S)sc1C(=O)CC(=O)C(=O)Nc1c(C(C)C)cccc1C(C)C`, the GI50 in assay [1] was 44.7 µM (inactive); in [2] it was 38.7 µM (inactive); in [3], 26.9 µM (inactive); in [4], 37.3 µM (inactive); in assay [5], 49.3 µM (inactive); in [6], 41 µM (inactive). In addition, the GI50 is 41.4 µM (inactive) in [7]; 30.1 µM (inactive) in assay [8]; 40.5 µM (inactive) in assay [9]; 18.3 µM (inactive) in assay [10]; 65.5 µM (inactive) in assay [11]; 56.8 µM (inactive) in assay [12]. Also, the GI50 in [13] was 45.8 µM (inactive); in assay [14] it was 26.4 µM (inactive); in assay [15], > 100 µM (inactive); in assay [16] it was 60.4 µM (inactive); in [17] it was 24.5 µM (inactive).
Consider `COC(=O)/C(=N/NC(N)=O)C(C(=O)OC)C(=O)C(=O)Nc1ccc(Cl)cc1` (stereo unspecified), for which the GI50 in assay [1] was > 50.1 µM (inactive); in assay [2], > 70.6 µM (inactive); in [3] it was > 100 µM (inactive); in assay [4] it was > 100 µM (inactive); in [5] it was > 83.2 µM (inactive); in assay [6], > 100 µM (inactive). Also, the GI50 in assay [7] is > 100 µM (inactive); in [8], > 100 µM (inactive); in [9], > 71.3 µM (inactive); in assay [10], > 100 µM (inactive); in assay [11], > 100 µM (inactive); in [12] it was > 100 µM (inactive). In addition, the GI50 in [13] is > 100 µM (inactive); in [14], 20.8 µM (inactive); in [15], > 100 µM (inactive); in [16] it was > 100 µM (inactive); in [17] it was > 100 µM (inactive).
`CCN(CC)C(=O)Cc1[nH][nH]c(=O)c1C(=O)N(CC)CC`: the GI50 in assay [1], in assay [2], in assay [3], in assay [4], in [5] and in assay [6] was > 100 µM (inactive) in each case. Further, the GI50 in assay [7], in assay [8], in [9], in assay [10], in assay [11] and in assay [12] was > 100 µM (inactive) each time. Moreover, the GI50 in assay [13], in assay [14], in assay [15], in assay [16] and in assay [17] was > 100 µM (inactive) each time.
Take `O=Cc1ccccc1OCCOc1cc(OCCOc2ccccc2C=O)c(OCCOc2ccccc2C=O)cc1OCCOc1ccccc1C=O`: the GI50 in assay [1] is > 37.1 µM (inactive); in [2] it was 21.9 µM (inactive); in [3], 26.2 µM (inactive); in assay [4] it was > 100 µM (inactive); in assay [5], 36.5 µM (inactive); in [6], > 45.1 µM (inactive). Besides, the GI50 was > 54.8 µM (inactive) in assay [7]; 56.5 µM (inactive) in assay [8]; > 67.9 µM (inactive) in assay [9]; > 100 µM (inactive) in [10]; 44.9 µM (inactive) in assay [11]; > 100 µM (inactive) in assay [12]. The GI50 in assay [13] was > 31.6 µM (inactive); in assay [14], 39.8 µM (inactive); in [15] it was 42.6 µM (inactive); in [16] it was > 100 µM (inactive); in assay [17], > 39.1 µM (inactive).
Take `CN(C)CCNC(=O)c1cc([N+](=O)[O-])cc2ccc(-c3ccccc3)nc12`: the GI50 in assay [1] was 3.1 µM (inactive); in assay [2], 3.23 µM (inactive); in assay [3] it was 10.5 µM (inactive); in assay [4] it was 3.85 µM (inactive); in assay [5] it was 7.03 µM (inactive); in [18] it was 2.71 µM (inactive). The GI50 in [7] is 3.27 µM (inactive); in assay [8], 7.67 µM (inactive); in assay [9], 3.8 µM (inactive); in [10], 10.9 µM (inactive); in assay [11] it was 19.3 µM (inactive); in [12] it was 10.4 µM (inactive). The GI50 is 8.02 µM (inactive) in assay [13], 22.2 µM (inactive) in assay [15], 5.75 µM (inactive) in assay [16] and 7.19 µM (inactive) in assay [17].
Consider `CCC/C=C1\CCC(CN(C)C)C1=O` (stereo unspecified), for which the GI50 in [1] is 1.09 µM (active); in assay [2], 9.91 µM (inactive); in assay [3], 3.04 µM (inactive); in [4], 8.11 µM (inactive); in assay [5], 7.35 µM (inactive); in assay [6], 2.88 µM (inactive). The GI50 in assay [7] is 19 µM (inactive); in [8] it was 17.1 µM (inactive); in assay [9] it was 28.1 µM (inactive); in assay [10], 5.47 µM (inactive); in assay [11] it was 15.9 µM (inactive); in assay [12] it was 16.9 µM (inactive). Moreover, the GI50 is 36.7 µM (inactive) in [13]; 2.49 µM (inactive) in assay [14]; 5.41 µM (inactive) in assay [15]; 15 µM (inactive) in [16]; 5.57 µM (inactive) in assay [17].
Take `COC1=C2C[C@@H](C)C[C@@H](OC)[C@@H](O)[C@H](C)/C=C(\C)[C@@H](OC(N)=O)[C@H](OC)/C=C\C=C(/C)C(=O)NC(=CC1=O)C2=O`: the GI50 in assay [1] is 0.0282 µM (active); in assay [2], 0.0419 µM (active); in assay [3] it was 0.112 µM (active); in [4] it was 0.0143 µM (active); in assay [18] it was 0.0198 µM (active); in [19] it was 0.0421 µM (active). The GI50 is 0.0216 µM (active) in [20]; 0.0199 µM (active) in [6]; 3.56 µM (inactive) in assay [7]; 0.0309 µM (active) in [8]; 1.49 µM (inactive) in [9]; 0.213 µM (active) in [10]. Further, the GI50 in assay [11] is 0.396 µM (active); in assay [12], 0.0405 µM (active); in [13], 10.2 µM (inactive); in [15], 0.118 µM (active); in assay [16] it was 0.0769 µM (active); in [17], 0.0787 µM (active).
With `CN(C)CCNC(=O)c1cccc2nc3c4ccccc4c4ccccc4c3nc12`, the GI50 in [1] is 1.13 µM (inactive); in assay [2], 1.53 µM (inactive); in assay [3], 7.82 µM (inactive); in assay [4] it was 1.51 µM (inactive); in assay [5], 1.64 µM (inactive); in [18] it was 1.14 µM (inactive). In addition, the GI50 in assay [19] was 1.82 µM (inactive); in [20] it was 1.65 µM (inactive); in assay [6], 0.748 µM (active); in assay [7] it was 9.86 µM (inactive); in assay [8] it was 1.87 µM (inactive); in assay [9], 0.875 µM (active). Moreover, the GI50 in assay [10] is 3.44 µM (inactive); in assay [11], 3.22 µM (inactive); in assay [12], 1.92 µM (inactive); in assay [13], 3.48 µM (inactive); in assay [14], 0.773 µM (active); in [15], 5.38 µM (inactive). The results for the GI50 in assay [16] and in [17] were 3.86 µM (inactive) and 2.47 µM (inactive), respectively.
